# Read-outs that look alike come from different tables or passages of the source. Non-standard residues stand in square brackets, D forms with d. Residues, ends and D or L forms follow the SMILES beside them. *: point of attachment. Stearoyl = CCCCCCCCCCCCCCCCCC(=O)*; Lauroyl = CCCCCCCCCCCC(=O)*
# Legend:
# HeLa cells = details: 16 h
# Jurkat cells = assay type: cell-based; details: 16 h
# Protocol: Toxicity of peptide compositions for mammalian cells was determined by using a metabolic viability assay. For this assay 4×10^5 HeLa cells were seeded per well into a microwell plate (50 microliters volume). Jurkat cells also were utilized in separate experiments. The cells were incubated for 16 hours at 37° C. under mammalian cell culture conditions. Two fold serial dilutions for each peptide were prepared and added to the cells (final volume 100 microliters) and incubated for 16 hours at 37° C. For each dilution series control wells containing cells without peptide were included. The metabolic activity and viability of the cells were determined by using a commercially available assay (CellTiter96 assay, Promega Corp.). According to manufacturer's protocol 20 microliters of CellTiter reagent was added to each well and incubated at 37° C. for 1-4 hours. The CellTiter assay is a commercial version of the MTT assay, which measures the conversion of a tetrazolium […] into a colored formazan salt in metabolically active cells. The formation of the formazan product can be measured at 470 nm and is generally accepted as a measure of cellular viability. The cells were incubated at 37° C. and monitored for color development. The conversion of CellTiter reagent was measured at 470 nm using a Versamax plate reader (Molecular Devices). The viability of peptide treated cells is expressed as IC50 (i.e., concentration that leads to a 50% reduction of viability relative to the untreated control). Table 7A reports IC50 values for HeLa cells cultured in OptiMEM or 10% FBS when contacted with peptide compositions from Table 3, and Table 7B reports IC50 values for HeLa cells or Jurkat cells contacted with peptide compositions from Table 3.
# [1] = test system: Candida albicans ATCC 18804; assay: MIC in yeasts, NCCLS M27-A2 broth microdilution, RPMI 1640 (Table 9, letter e); assay type: cell-based; details: ATCC 18804
# Outline: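 Broth microdilution per NCCLS M27-A2 in RPMI 1640 with glutamine and phenol red, final inoculum 0.5×10^3–2.5×10^3 CFU/milliliter. Incubated 24 to 48 hours at 37° C; MIC is the lowest peptide concentration with no visible growth.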
# [2] = test system: Propionibacterium acnes ATCC 6919; assay type: cell-based
# Outline: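 MIC by non-standard broth microdilution in reinforced Clostridial broth, log-phase P. acnes inoculum at 5×10^5 to 1×10^6 CFU/mL. Plates were held anaerobically 48–72 h at 37° C; MIC was the lowest peptide concentration with no visible turbidity relative to the no-peptide control.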
# [3] = test system: Staphylococcus aureus ATCC 29213; assay: MIC, NCCLS M7-A6 broth microdilution, cation-adjusted Mueller Hinton broth (Table 9, no superscript); assay type: cell-based; details: ATCC 29213
# Outline: (§1)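 CAMHB microdilution; final inoculum 5×10^5–1×10^6 CFU/milliliter from log-phase culture; overnight, 37° C; MIC = lowest peptide conc. without visible growth (turbidity) vs no-peptide control.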
# [4] = test system: Escherichia coli ATCC 25922; assay: MIC, NCCLS M7-A6 broth microdilution (Table 9, no superscript); assay type: cell-based; details: ATCC 25922
# Outline: as §1
# [5] = test system: Staphylococcus epidermidis ATCC 12228; assay: as above; assay type: cell-based; details: ATCC 12228
# Outline: as §1
# [6] = test system: Pseudomonas aeruginosa ATCC 27853; assay: as above; assay type: cell-based; details: ATCC 27853
# Outline: as §1
# Salmonella dublin (Lane) [7] = assay: as above; assay type: cell-based
# Outline: as §1
# [8] = test system: Staphylococcus aureus ATCC 29213; details: ATCC 29213, pH 7.4
# Salmonella dublin (Lane) [9] = details: pH 7.4
# IL-12 release = assay: Anti-inflammation assay: IL-12 release in PBMCs stimulated by P. acnes (IL-12p70 ELISA); assay type: cell-based, human; details: for reduction of IL-12 release in PBMs stimulated by P. acnes: 12.5 to 0.78 micrograms per milliliter; for IC50: PBMCs stimulated by P. acnes, over night, read-out: IC50 value, reduction of IL-12 release
# Protocol: An assay that detected reductions in IL-12 released in whole human blood cells (PBMCs) was utilized to detect reductions in inflammation elicited by peptide compositions described herein. The assay utilized the following materials and reagents: whole human blood cells; P. acnes; peptides 55, 67 and 93 from Table 3; IL-12p70 ELISA kit (eBiosciences); RPMI 1640 growth medium; PBS; and a 96-well microtiter plate. PBMCs were prepared from whole human blood cells according to standard procedures and cells were resuspended in RPMI 1640 and 10% FCS. Cells were seeded at 250,000 cells per well in a 96-well microtiter plate and incubated for 90 minutes. […] Controls included untreated cells, P. acnes alone or a peptide alone. The cells were incubated over night at 37° C., and cell supernatants were collected and stored at −80° C. for use in an IL-12 ELISA assay (eBiosciences). A 1:1 dilution of supernatant was utilized to perform the IL-12 ELISA following the protocol provided by the manufacturer.
Compound,IC50 (HeLa cells),IC50 (Jurkat cells),MIC C. albicans [1],MIC P. acnes [2],MIC S. aureus [3],MIC E. coli [4],MIC S. epidermidis [5],MIC P. aeruginosa [6],MIC S. dublin (Salmonella dublin (Lane) [7]),MIC S. aureus [8],MIC S. dublin (Salmonella dublin (Lane) [9]),reduction of IL-12 release in PBMs stimulated by P. acnes (IL-12 release),IC50 (IL-12 release)
CSCC[C@H](NC(=O)[C@H](Cc1ccccc1)NC(=O)[C@H](CC(N)=O)NC(=O)[C@H](CCCNC(=N)N)NC(=O)[C@H](CO)NC(=O)[C@H](Cc1c[nH]c2ccccc12)NC(=O)[C@H](CC(=O)O)NC(=O)[C@H](CCCNC(=N)N)NC(=O)[C@H](Cc1c[nH]c2ccccc12)NC(=O)[C@H](CCCNC(=N)N)NC(=O)[C@H](CO)NC(=O)[C@H](CCCNC(=N)N)NC(=O)CNC(=O)[C@@H](NC(=O)[C@H](CCCNC(=N)N)NC(=O)[C@H](CO)NC(=O)[C@@H](NC(=O)[C@H](CCCNC(=N)N)NC(=O)[C@@H](NC(C)=O)[C@@H](C)O)C(C)C)[C@@H](C)O)C(=O)N[C@@H](CCCNC(=N)N)C(=O)N[C@@H](C)C(=O)N[C@@H](C)C(N)=O [Peptide 1],> 100 µM,> 100 µM,,,,,,,,,,,
"CSCC[C@@H](NC(=O)[C@@H](Cc1ccccc1)NC(=O)[C@@H](CC(N)=O)NC(=O)[C@@H](CCCNC(=N)N)NC(=O)[C@@H](CO)NC(=O)[C@@H](Cc1c[nH]c2ccccc12)NC(=O)[C@@H](CC(=O)O)NC(=O)[C@@H](CCCNC(=N)N)NC(=O)[C@@H](Cc1c[nH]c2ccccc12)NC(=O)[C@@H](CCCNC(=N)N)NC(=O)[C@@H](CO)NC(=O)[C@@H](CCCNC(=N)N)NC(=O)CNC(=O)[C@H](NC(=O)[C@@H](CCCNC(=N)N)NC(=O)[C@@H](CO)NC(=O)[C@H](NC(=O)[C@@H](CCCNC(=N)N)NC(=O)[C@H](NC(C)=O)[C@H](C)O)C(C)C)[C@H](C)O)C(=O)N[C@H](CCCNC(=N)N)C(N)=O [Peptide 33, Ac-trvsrtgrsrwrdwsrnfmr-NH2] (Ac-[dT][dR][dV][dS][dR][dT]G[dR][dS][dR][dW][dR][dD][dW][dS][dR][dN][dF][dM][dR]-NH2)",> 100 µM,67.5 µM,16e ug/mL,12.5 µg·days/mL,>64 µg/mL,>64 µg/mL,32 µg/mL,>64 µg/mL,64 µg/mL,,,,
CSCC[C@H](NC(=O)[C@H](Cc1ccccc1)NC(=O)[C@H](CC(N)=O)NC(=O)[C@H](CCCNC(=N)N)NC(=O)[C@H](C)NC(=O)[C@H](Cc1c[nH]c2ccccc12)NC(=O)[C@H](CC(=O)O)NC(=O)[C@H](CCCNC(=N)N)NC(=O)[C@H](Cc1c[nH]c2ccccc12)NC(=O)[C@H](CCCNC(=N)N)NC(=O)[C@H](CO)NC(=O)[C@H](CCCNC(=N)N)NC(=O)CNC(=O)[C@@H](NC(=O)[C@H](CCCNC(=N)N)NC(=O)[C@H](C)NC(=O)[C@@H](NC(=O)[C@H](CCCNC(=N)N)NC(=O)[C@@H](NC(C)=O)[C@@H](C)O)C(C)C)[C@@H](C)O)C(=O)N[C@@H](CCCNC(=N)N)C(N)=O [Peptide 37] (Ac-TRVARTGRSRWRDWARNFMR-NH2),,,64e ug/mL,100 µg·days/mL,,>64 µg/mL,>64 µg/mL,>64 µg/mL,,25b ug/mL,25b ug/mL,,
CCCCCCCCCCCCCCCCCC(=O)N[C@H](C(=O)N[C@@H](CCCNC(=N)N)C(=O)N[C@H](C(=O)N[C@@H](CO)C(=O)N[C@@H](CCCNC(=N)N)C(=O)N[C@H](C(=O)NCC(=O)N[C@@H](CCCNC(=N)N)C(=O)N[C@@H](CO)C(=O)N[C@@H](CCCNC(=N)N)C(=O)N[C@@H](Cc1c[nH]c2ccccc12)C(=O)N[C@@H](CCCNC(=N)N)C(=O)N[C@@H](CC(=O)O)C(=O)N[C@@H](Cc1c[nH]c2ccccc12)C(=O)N[C@@H](CO)C(=O)N[C@@H](CCCNC(=N)N)C(=O)N[C@@H](CC(N)=O)C(=O)N[C@@H](Cc1ccccc1)C(=O)N[C@@H](CCSC)C(=O)N[C@@H](CCCNC(=N)N)C(N)=O)[C@@H](C)O)C(C)C)[C@@H](C)O [Peptide 67] (Stearoyl-TRVSRTGRSRWRDWSRNFMR-NH2),,,,,64 µg/mL,,,,64 µg/mL,,,dose response of reduction of IL-12 release,
"CCCCCCCCCCCC(=O)N[C@@H](CCCNC(=N)N)C(=O)N[C@@H](CO)C(=O)N[C@@H](CCCNC(=N)N)C(=O)N[C@@H](Cc1c[nH]c2ccccc12)C(=O)N[C@@H](CCCNC(=N)N)C(=O)N[C@@H](CC(=O)O)C(=O)N[C@H](C(=O)N[C@@H](C)C(=O)N[C@@H](CCCNC(=N)N)C(=O)N[C@@H](CC(N)=O)C(=O)N[C@@H](Cc1ccccc1)C(=O)N[C@@H](CCSC)C(=O)N[C@@H](CCCNC(=N)N)C(N)=O)C(C)C [Peptide 88, Lauryl-RSRWRDVARNFMR-NH2] (Lauroyl-RSRWRDVARNFMR-NH2)",,,32e ug/mL,25 µg·days/mL,,,,,,3b ug/mL,3b ug/mL,,
"CSCC[C@H](NC(=O)[C@H](Cc1ccccc1)NC(=O)[C@H](CC(N)=O)NC(=O)[C@H](CCCNC(=N)N)NC(=O)[C@H](CO)NC(=O)[C@@H](NC(=O)[C@H](CC(=O)O)NC(=O)[C@H](CCCNC(=N)N)NC(=O)[C@H](Cc1c[nH]c2ccccc12)NC(=O)[C@H](CCCNC(=N)N)NC(=O)[C@H](CO)NC(=O)[C@H](CCCNC(=N)N)NC(C)=O)C(C)C)C(=O)N[C@@H](CCCNC(=N)N)C(N)=O [Peptide 93, Ac-RSRWRDVSRNFMR-NH2] (Ac-RSRWRDVSRNFMR-NH2)",,,,,>64 µg/mL,>64 µg/mL,>64 µg/mL,>64 µg/mL,>64 µg/mL,,,dose response of reduction of IL-12 release,0.8 µM
"CSCC[C@@H](NC(=O)[C@@H](Cc1ccccc1)NC(=O)[C@@H](CC(N)=O)NC(=O)[C@@H](CCCNC(=N)N)NC(=O)[C@@H](CO)NC(=O)[C@@H](Cc1c[nH]c2ccccc12)NC(=O)[C@@H](CC(=O)O)NC(=O)[C@@H](CCCNC(=N)N)NC(=O)[C@@H](Cc1c[nH]c2ccccc12)NC(=O)[C@@H](CCCNC(=N)N)NC(=O)[C@@H](CO)NC(=O)[C@@H](CCCNC(=N)N)NC(C)=O)C(=O)N[C@H](CCCNC(=N)N)C(N)=O [Peptide 95, Ac-rsrwrdwsrnfmr-NH2] (Ac-[dR][dS][dR][dW][dR][dD][dW][dS][dR][dN][dF][dM][dR]-NH2)",,,16e ug/mL,12.5 µg·days/mL,,,,,,12.5b ug/mL,6b ug/mL,,
"H2N-kkkkkkkkaatrvartgrsrwrdvarnfmr-NH2 (KKKKKKKKAATRVARTGRSRWRDVARNFMR; N-terminal amine, C-terminal amide) [Peptide 55]",,,,,,,,,,,,,> 20 µM
